Common to all, as to assay type: biochemical
Experiment [1] addresses T1, SHV-5 (Klebsiella pneumoniae, UniProt P0A3M1).
T1 construct: made in house; host or cells: E. coli BL21(DE3)
In words: β-lactamase enzyme inhibition, SHV-5. The procedure: (§1) For SHV-5, Kpc-2, p99AmpC and OXA-1 β-lactamases, E. coli BL21(DE3) bacterial cells carrying expression plasmids (expressed as native untagged proteins) for the individual β-lactamases were grown in 1 L of Superbroth (Teknova Inc. Hollister, Calif.) supplemented with 100 μg/mlkanamycin selection and 1×5052 (0.5% glycerol, 0.05% glucose and 0.2% α-lactose) at 35° C. for 18-20 hours. Cells were harvested by centrifugation (4,000×g, 4° C., 20 min), resuspended in 50 ml of 10 mM HEPES pH 7.5 ( 1/20 of the initial volume). The cells were lysed by sonication (5 pulses of 45 seconds) at 45 W on ice. The lysates were clarified by centrifugation at 10,000×g for 40 minutes at 4° C. Samples were diluted 5-fold in 50 mM sodium acetate pH 5.0, stored overnight at 4° C., after which they were centrifuged at 10,000×g for 30 minutes to clarify, and filtered through 0.45 μm filters. The samples were loaded onto a 5 ml Capto S sepharose cation exchange column (GE Healthcare) pre-equilibrated with 50 mM sodium acetate pH 5.0. The column was washed with 5 column volumes of 50 mM sodium acetate pH 5.0 to wash out unbound protein and a linear gradient of NaCl (0 to 500 mM) was used to elute the protein (over 16 CV) from the column. Fractions were assayed for β-lactamase activity using Centa (Calbiochem, Gibbstown, N.J.) or Nitrocefin (EMD Millipore chemicals, Darmstadt, Germany) as a reporter β-lactamase substrate for activity in the isolated fractions. Active fractions were pooled, concentrated and further purified by gel filtration chromatography on a Superdex 75 prep grade gel filtration column (GE Healthcare, Piscataway, N.J.) pre-equilibrated in 50 mM Hepes pH 7.5, 150 mM NaCl. Active fractions were pooled concentrated, quantitated by BCA protein determination (Thermo Scientific, Rockford, Ill.), dialyzed into PBS and frozen at −80° C. in 20% glycerol until use.
(§2) An equal volume of diluted enzyme stock was added, and the plates were incubated at 37° C. for 15 min. Nitrocefin was used as substrate for p99 AmpC, VIM-2 and OXA-1 and dispensed into each well at a final concentration of 100 μM. Absorbance at 486 nm was immediately monitored for 10 min using a Biotek Powerwave XS2 microplate spectrophotometer using the GENS software package (Biotek Instruments, Winooski Vt.). In an analogous fashion, imipenem was used as substrate for Kpc-2 and Cefotaxime was used for SHV-5, while changes in absorbance upon hydrolysis of the β-lactam ring were monitored at 300 nm and 260 nm respectively in UV-transparent 96-well microtiter assay plates. Maximum rates of hydrolysis were compared to those in control wells (without inhibitors), and percentages of enzyme inhibition were calculated for each concentration of inhibitor. The concentration of inhibitor needed to reduce the initial rate of hydrolysis of substrate by 50% (IC50) was calculated as the residual activity of β-lactamase at 486 nm using GraFit version 7 kinetics software package (Erithacus Software, Surrey, UK).
(§3) Using the methodology described above, examples of the current invention were evaluated for their ability to inhibit β-lactamase enzymes from all four Ambler classifications (A through D). […] NT=Not tested.

Experiment [2] concerns the target T2, p99 AmpC (Enterobacter cloacae, UniProt P05364).
T2 construct: made in house; host or cells: E. coli BL21(DE3)
In words: β-lactamase enzyme inhibition, p99 AmpC. The procedure:
as §1, §2, §3

In experiment [3] the target is T3, KPC-2 (Klebsiella pneumoniae, UniProt Q9F663).
T3 construct: made in house; host or cells: E. coli BL21(DE3)
The experiment can be described thus: β-lactamase enzyme inhibition, KPC-2. To be noted: substrate imipenem, 300 nm; read-out: Class A KPC-2 IC50. The procedure:
as §1, §2, §3

For experiment [4], the target named is T4, VIM-2 (Escherichia coli, UniProt Q5U7L7).
T4 construct: made in house; host or cells: E. coli BL21(DE3)
The experiment can be described thus: β-lactamase enzyme inhibition, VIM-2. To be noted: substrate Nitrocefin 100 μM, 486 nm; read-out: Class B VIM-2 IC50. The method, then:
For Vim-2 metallo β-lactamase, the procedure was identical with the following exceptions, first the protein was not pH adjusted to pH 5 with 50 mM sodium acetate, second, the chromatography step was changed to a 5 ml Q sepharose anion exchange column pre-equilibrated with 50 mM Hepes pH 7.5, and elution of the protein was achieved by a linear gradient of NaCl (0-600 mM). Finally, the VIM-2 purification required a second run (3rd step) on the Q sepharose anion exchange column to achieve acceptable purity (>90%).
as §2, §3

The target of experiment [5] is T5, OXA-1 (Escherichia coli, UniProt P13661).
T5 construct: made in house; host or cells: E. coli BL21(DE3)
In words: β-lactamase enzyme inhibition, OXA-1. As to conditions: substrate Nitrocefin 100 μM, 486 nm; read-out: Class D OXA-1 IC50. The procedure:
as §1, §2, §3

Where [6] appears, read: read-out: Class A SHV-5 IC50, substrate Cefotaxime, 260 nm.

Like-named read-outs stand apart in the source and are kept apart here.

As a reminder, the IC50 is the midpoint of a concentration-inhibition curve.

As to `NC[C@H]1CC[C@H](C(=O)N[C@H]2Cc3cccc(C(=O)O)c3OB2O)CC1` [Example 1, (R)-3-(trans-4-(aminomethyl)cyclohexanecarboxamido)-2-hydroxy-3,4-dihydro-2H-benzo[e][1,2]oxaborinine-8-carboxylic acid], the IC50 is 1000 to 10000 nM in experiment [1]; below 100 nM in experiment [2]; 100 to 1000 nM in experiment [3]; 100 to 1000 nM in experiment [4]; below 100 nM in experiment [5].

On to `N[C@H]1CC[C@H](C(=O)N[C@H]2Cc3cccc(C(=O)O)c3OB2O)CC1` [Example 2, (R)-3-(trans-4-aminocyclohexanecarboxamido)-2-hydroxy-3,4-dihydro-2H-benzo[e][1,2]oxaborinine-8-carboxylic acid], for which the IC50 in experiment [1] is 10000 to 100000 nM; in experiment [2] it was below 100 nM; in experiment [3], 100 to 1000 nM; in experiment [4], 100 to 1000 nM; in experiment [5], 100 to 1000 nM.

For the compound `NC[C@H]1CC[C@H](CC(=O)N[C@H]2Cc3cccc(C(=O)O)c3OB2O)CC1` [Example 3], the IC50 was below 100 nM in experiment [1]; below 100 nM in experiment [2]; 100 to 1000 nM in experiment [3]; 1000 to 10000 nM in experiment [4]; below 100 nM in experiment [5].

Consider `N=C(N)NC[C@H]1CC[C@H](CC(=O)N[C@H]2Cc3cccc(C(=O)O)c3OB2O)CC1` [Example 4, (R)-3-(2-(trans-4-(guanidinomethyl)cyclohexyl)acetamido)-2-hydroxy-3,4-dihydro-2H-benzo[e][1,2]oxaborinine-8-carboxylic acid], for which the IC50 is below 100 nM in experiment [1]; below 100 nM in experiment [2]; below 100 nM in experiment [3]; 100 to 1000 nM in experiment [4]; below 100 nM in experiment [5].

Turning to `CN(C)CC(=O)NC[C@H]1CC[C@H](CC(=O)N[C@H]2Cc3cccc(C(=O)O)c3OB2O)CC1` [Example 5, (R)-3-(2-(trans-4-((2-(dimethylamino)acetamido)methyl)cyclohexyl)acetamido)-2-hydroxy-3,4-dihydro-2H-benzo[e][1,2]oxaborinine-8-carboxylic acid], the concentration for half-maximal inhibition (IC50) was below 100 nM in experiment [1]; below 100 nM in experiment [2]; below 100 nM in experiment [3]; 1000 to 10000 nM in experiment [4]; below 100 nM in experiment [5].

Turning to `N[C@H]1CC[C@H](CC(=O)N[C@H]2Cc3cccc(C(=O)O)c3OB2O)CC1` [Example 6, (R)-3-(2-(trans-4-aminocyclohexyl)acetamido)-2-hydroxy-3,4-dihydro-2H-benzo[e][1,2]oxaborinine-8-carboxylic acid], the concentration for half-maximal inhibition (IC50) in experiment [1] is below 100 nM; in experiment [2] it was below 100 nM; in experiment [3] it was below 100 nM; in experiment [4], 100 to 1000 nM; in experiment [5], below 100 nM.

In the case of `N[C@H]1CC[C@@H](CC(=O)N[C@H]2Cc3cccc(C(=O)O)c3OB2O)CC1` [Example 7, (R)-3-(2-(cis-4-aminocyclohexyl)acetamido)-2-hydroxy-3,4-dihydro-2H-benzo[e][1,2]oxaborinine-8-carboxylic acid], the IC50 in experiment [1] was below 100 nM; in experiment [2], below 100 nM; in experiment [3], below 100 nM; in experiment [4], 1000 to 10000 nM; in experiment [5], 100 to 1000 nM.

Turning to `CN(C)C[C@H]1CC[C@H](CC(=O)N(C)[C@H]2Cc3cccc(C(=O)O)c3OB2O)CC1` [Example 8, (R)-3-(2-(trans-4-((dimethylamino)methyl)cyclohexyl)-N-methylacetamido)-2-hydroxy-3,4-dihydro-2H-benzo[e][1,2]oxaborinine-8-carboxylic acid], the IC50 is below 100 nM in experiment [1]; below 100 nM in experiment [2]; below 100 nM in experiment [3]; 1000 to 10000 nM in experiment [4]; 100 to 1000 nM in experiment [5].

On to `N=C(N)N[C@H]1CC[C@H](CC(=O)N[C@H]2Cc3cccc(C(=O)O)c3OB2O)CC1` [Example 9, (R)-3-(2-(trans-4-guanidinocyclohexyl)acetamido)-2-hydroxy-3,4-dihydro-2H-benzo[e][1,2]oxaborinine-8-carboxylic acid], for which the IC50 in experiment [1] is below 100 nM; in experiment [2], below 100 nM; in experiment [3], below 100 nM; in experiment [4], 100 to 1000 nM; in experiment [5] it was below 100 nM.

Regarding `NCCNC[C@H]1CC[C@H](CC(=O)N[C@H]2Cc3cccc(C(=O)O)c3OB2O)CC1` [Example 10, (R)-3-(2-(trans-4-((2-aminoethylamino)methyl)cyclohexyl)acetamido)-2-hydroxy-3,4-dihydro-2H-benzo[e][1,2]oxaborinine-8-carboxylic acid], the IC50 was below 100 nM in experiment [1]; below 100 nM in experiment [2]; below 100 nM in experiment [3]; 100 to 1000 nM in experiment [4]; 100 to 1000 nM in experiment [5].

`N=C(N)N1CCN([C@H]2CC[C@H](CC(=O)N[C@H]3Cc4cccc(C(=O)O)c4OB3O)CC2)CC1` [Example 24, (R)-3-(2-(trans-4-(4-carbamimidoylpiperazin-1-yl)cyclohexyl)acetamido)-2-hydroxy-3,4-dihydro-2H-benzo[e][1,2]oxaborinine-8-carboxylic acid]: the IC50 was below 100 nM in experiment [1] (setting [6]), below 100 nM in experiment [3], 1000 to 10000 nM in experiment [4] and below 100 nM in experiment [5].

`NC1CN(C2CCC(CC(=O)N[C@H]3Cc4cccc(C(=O)O)c4OB3O)CC2)C1` (stereo partly drawn) [Example 35, (3R)-3-(2-(4-(3-aminoazetidin-1-yl)cyclohexyl)acetamido)-2-hydroxy-3,4-dihydro-2H-benzo[e][1,2]oxaborinine-8-carboxylic acid]: the IC50 in experiment [1] (setting [6]) is below 100 nM; in experiment [3], below 100 nM; in experiment [4], 100 to 1000 nM; in experiment [5] it was below 100 nM.

In the case of `O=C(CC1CCC(NC2CNC2)CC1)N[C@H]1Cc2cccc(C(=O)O)c2OB1O` (stereo partly drawn) [Example 36, (3R)-3-(2-(4-(azetidin-3-ylamino)cyclohexyl)acetamido)-2-hydroxy-3,4-dihydro-2H-benzo[e][1,2]oxaborinine-8-carboxylic acid], the IC50 was below 100 nM in experiment [1] (setting [6]), below 100 nM in experiment [3], 1000 to 10000 nM in experiment [4] and below 100 nM in experiment [5].

`N=C(N)NC1CN(C2CCC(CC(=O)N[C@H]3Cc4cccc(C(=O)O)c4OB3O)CC2)C1` (stereo partly drawn) [Example 41, (3R)-3-(2-(4-(3-guanidinoazetidin-1-yl)cyclohexyl)acetamido)-2-hydroxy-3,4-dihydro-2H-benzo[e][1,2]oxaborinine-8-carboxylic acid]: the IC50 is below 100 nM in experiment [1] (setting [6]), below 100 nM in experiment [3], 100 to 1000 nM in experiment [4] and below 100 nM in experiment [5].

Consider `O=C(CC1CCC(O)CC1)N[C@H]1Cc2cccc(C(=O)O)c2OB1O` (stereo partly drawn) [Example 47, (3R)-2-hydroxy-3-(2-(4-hydroxycyclohexyl)acetamido)-3,4-dihydro-2H-benzo[e][1,2]oxaborinine-8-carboxylic acid], for which the IC50 is below 100 nM in experiment [1] (setting [6]), below 100 nM in experiment [3], 1000 to 10000 nM in experiment [4] and below 100 nM in experiment [5].

These data come from US8912169B2, “Beta-lactamase inhibitors” (VenatoRx Pharmaceuticals, Inc., priority 2012, dated 2014).
